One data set deals with BALB/c mice. In words: Maximum tolerated dose, body weight reduction as response. The format is in vivo. To be noted: intravenously. The protocol: Next, the maximum tolerated dose of salinomycin and salinomycin-loaded PLA based hybrid block copolymeric salinomycin nanoparticle was probed in BALB/c mice. Mice were administered the salinomycin loaded hybrid block copolymeric nanoparticles once a week for 3 weeks. The body weight reduction was observed as a phenotypic response. The dose-response of salinomycin and the salinomycin nanoparticle was observed by administration intraperitoneally (FIG. 7) and intravenously (FIG. 8). For intraperitoneal administration, mice were administered salinomycin and salinomycin loaded nanoparticles at 5 mg/kg, 7.5 mg/kg, 10 mg/kg. Further, only the salinomycin nanoparticles were administered at 12 mg/kg and 15 mg/kg, intraperitoneally. Three mice were probed at each dose for salinomycin and salinomycin loaded nanoparticle. For intravenous administration, mice were administered salinomycin and salinomycin loaded nanoparticles at 5 mg/kg. Only salinomycin nanoparticles were administered at 1 mg/kg, and 7.5 mg/kg. Further another group of salinomycin at 2.5 mg/kg was also tested. Three mice were probed at each dose for salinomycin and salinomycin loaded nanoparticle. It was observed that free salinomycin was tolerated up to a dose of 10 mg/kg and the salinomycin loaded nanoparticle was tolerated up to 15 mg/kg, when administered intraperitoneally. […]

The test system of a further data set is MCF-7 cells. In words: Inhibition of cell proliferation. As to conditions: Homo sapiens, MCF7; 5000 cells per well, 0.01-100 μM, 72 hours. Type of data set: cell-based. Here is the method:
(§1) Next, the potency of inhibition of salinomycin-induced cell growth was probed by comparing the inhibition with salinomycin and salinomycin nanoparticle in MCF-7, MDA-MB 231 and MDA-MB 468 cell lines. […] (see FIG. 6A, B, C). MCF-7 cells at concentration of 5000 cells per well were treated with salinomycin or salinomycin nanoparticles from a concentration of 0.01-100 μM respectively for 72 hours. […] MDA-MB 468 cells at concentration of 5000 cells per well were treated with salinomycin or salinomycin nanoparticles from a concentration of 0.01-100 μM respectively for 72 hours. […] MDA-MB 231 cells at concentration of 5000 cells per well were treated with salinomycin or salinomycin nanoparticles from a concentration of 0.01-100 μM respectively for 72 hours.

In a further data set the test system is MDA-MB 468 cells. In words: Inhibition of cell proliferation. Type of data set: cell-based. To be noted: Homo sapiens, 5000 cells per well, 0.01-100 μM, 72 hours. The protocol:
as §1

In the next data set the test system is MDA-MB 231 cells. Put plainly: Inhibition of cell proliferation. The format is cell-based. As to conditions: Homo sapiens, 5000 cells per well, 0.01-100 μM, 72 hours. Here is the method:
as §1

What is called IC50 is the concentration needed to halve the response being measured.

Each structure is given as a SMILES string.

On to `CC[C@@H](C(=O)[C@@H](C)[C@@H](O)[C@H](C)[C@@H]1O[C@@H]([C@@H](CC)C(=O)O)CC[C@@H]1C)[C@H]1O[C@]2(C=C[C@@H](O)[C@]3(CC[C@@](C)([C@H]4CC[C@](O)(CC)[C@H](C)O4)O3)O2)[C@H](C)C[C@@H]1C` [salinomycin], for which the lethal dose in the data set on BALB/c mice stood at 5 mg/kg. In addition, the IC50 with MCF-7 cells was determined as 2.27 µM; in the data set with MDA-MB 468 cells it was 1.47 µM; in the data set with MDA-MB 231 cells, 3.46 µM.
